Assay results: patent US6013768A, “Kainate-binding human CNS receptors of the EAA1 family” (priority 1997, dated 2000)

Target: T1, human EAA1a receptor (Homo sapiens, UniProt Q16099)
T1 construct: expressed in transfected cells; host or cells: COS-1 (ATCC CRL 1650), transient expression, plasmid pcDNA1/humEAA1a
T1 sequence (Q16099 21-956): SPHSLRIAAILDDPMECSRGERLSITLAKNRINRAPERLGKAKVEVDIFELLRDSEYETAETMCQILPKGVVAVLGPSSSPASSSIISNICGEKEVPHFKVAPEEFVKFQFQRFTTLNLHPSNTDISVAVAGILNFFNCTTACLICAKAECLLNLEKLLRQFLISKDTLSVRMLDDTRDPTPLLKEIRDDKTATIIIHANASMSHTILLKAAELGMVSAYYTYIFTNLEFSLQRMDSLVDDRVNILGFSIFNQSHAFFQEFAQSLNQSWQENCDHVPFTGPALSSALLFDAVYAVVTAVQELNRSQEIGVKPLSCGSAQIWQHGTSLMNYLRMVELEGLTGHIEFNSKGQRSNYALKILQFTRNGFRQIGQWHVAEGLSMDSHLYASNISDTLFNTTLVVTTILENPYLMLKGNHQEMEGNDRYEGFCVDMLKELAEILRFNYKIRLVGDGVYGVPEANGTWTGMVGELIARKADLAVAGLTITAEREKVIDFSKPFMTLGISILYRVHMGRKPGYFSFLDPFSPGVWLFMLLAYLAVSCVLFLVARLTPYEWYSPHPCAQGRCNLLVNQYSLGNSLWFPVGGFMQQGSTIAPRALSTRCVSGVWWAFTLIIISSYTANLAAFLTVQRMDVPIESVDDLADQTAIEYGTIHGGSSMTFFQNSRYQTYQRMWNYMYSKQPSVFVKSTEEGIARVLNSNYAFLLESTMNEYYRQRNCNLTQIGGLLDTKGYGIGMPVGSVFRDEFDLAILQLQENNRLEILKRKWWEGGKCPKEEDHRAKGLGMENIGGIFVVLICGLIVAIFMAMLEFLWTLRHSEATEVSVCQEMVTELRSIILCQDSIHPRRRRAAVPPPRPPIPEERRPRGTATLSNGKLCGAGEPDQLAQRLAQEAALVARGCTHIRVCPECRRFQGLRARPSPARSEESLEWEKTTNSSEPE
Assay: kainate binding assay, membranes of EAA1a-producing COS cells
Experimental: Transfected cells in the frozen state were resuspended in ice-cold distilled water using a hand homogenizer and centrifuged for 20 minutes at 50,000 g. The supernatant was discarded and the membrane pellet stored frozen at -70° C.
COS cell membrane pellets were suspended in ice cold 50 mM Tris-HCl (pH 7.55, 5° C.) and placed inside Spectrapor 7 (EDTA-treated, sulfur-free) dialysis tubing. The suspension was placed in 4 liters of ice cold 50 mM Tris-HCl (pH 7.55, 5° C.) and dialyzed for 16-24 hours at 5° C. in order to remove endogenous glutamate that would compete for binding. The tissue suspension was recovered from the tubing along with a small volume of buffer used to rinse the tubing. This resultant membrane preparation was used as tissue source for binding experiments described below.
Binding assays were then performed, using an amount of COS-derived membrane equivalent to from 25-100 μg as judged by protein determination and selected radiolabelled ligand.
For kainate binding assays, incubation mixtures consisted of 25-100 μg tissue protein and [vinylidene-^3 H] kainic acid (58 Ci/mmole, 5 nM final) in the cold incubation buffer, 1 ml final volume. Non-specific binding was in the presence of 1 mM L-glutamate. […] Filters were washed twice in 6 ml of the cold incubation buffer, then placed in scintillation vials with 5 ml of Beckman Ready-Safe scintillation cocktail for counting.

C=C(C)[C@H]1CN[C@H](C(=O)O)[C@H]1CC(=O)O [kainate]
kainate binding affinity (EAA1a-producing COS cell membranes, high affinity category i.e. nanomolar range): high affinity | specific binding of labelled kainate ([3H]-kainate 5 nM labelled ligand, COS cell membranes, non-specific binding with 1 mM L-glutamate, FIG. 5): specific [^3 H]-kainate binding
